# Results as given in ChEMBL document CHEMBL3244110, “Synthesis and biological evaluation of some 2-amino-4-aryl-3H-1,5-benzodiazepine analogues of clozapine” (J Med Chem, 1978).
# Activity calls are given as the source filed them. The calls are words filed in the database; no cut-off is given here.
# System: Mus musculus
# Assay: Antipsychotic activity in mouse assessed as protection against amphetamine-induced lethality at 5 mg/kg, ip treated 30 mins before amphetamine challenge
# Format: functional, organism-based
# Parameters: dose 5 mg/kg
# Conditions: not given
row,SMILES,Activity
1,Fc1ccc(C2=Nc3ccccc3N=C(N3CCC(c4ccccc4)CC3)C2)cc1,Active
2,Clc1ccc(C2CCN(C3=Nc4ccccc4N=C(c4ccccc4)C3)CC2)cc1,Active
3,c1ccc(C2=Nc3ccccc3N=C(N3CCC(c4ccccc4)CC3)C2)cc1,Active
4,Cc1ccc(C2=CCN(C3=Nc4ccccc4N=C(c4ccccc4)C3)CC2)cc1,inactive
5,CN1CCN(C2=Nc3ccccc3N=C(c3ccc(F)cc3)C2)CC1,inactive
6,Cc1cc2c(cc1C)N=C(N1CCN(C)CC1)CC(c1ccccc1)=N2,inactive
7,CN1CCN(C2=Nc3cc(Cl)ccc3Nc3ccccc32)CC1 [CLOZAPINE],Active

# System: Mus musculus
# Assay: Antipsychotic activity in mouse assessed as protection against amphetamine-induced lethality at 50 mg/kg, ip treated 30 mins before amphetamine challenge
# Format: functional, organism-based
# Parameters: dose 50 mg/kg
# Conditions: not given
row,SMILES,Activity
1,Fc1ccc(C2=Nc3ccccc3N=C(N3CCC(c4ccccc4)CC3)C2)cc1,Active
2,Clc1ccc(C2CCN(C3=Nc4ccccc4N=C(c4ccccc4)C3)CC2)cc1,inactive
3,c1ccc(C2=Nc3ccccc3N=C(N3CCC(c4ccccc4)CC3)C2)cc1,Active
4,Cc1ccc(C2=CCN(C3=Nc4ccccc4N=C(c4ccccc4)C3)CC2)cc1,Active
5,CN1CCN(C2=Nc3ccccc3N=C(c3ccc(F)cc3)C2)CC1,inactive
6,Cc1cc2c(cc1C)N=C(N1CCN(C)CC1)CC(c1ccccc1)=N2,inactive
7,CN1CCN(C2=Nc3cc(Cl)ccc3Nc3ccccc32)CC1 [CLOZAPINE],Active

# System: Rattus norvegicus
# Assay: Antipsychotic activity in 0.2 mA footshock-induced conditioned stimulus rat assessed as decrease in avoidance response at 5 mg/kg, ip after 30 mins
# Format: functional, organism-based
# Parameters: dose 5 mg/kg
# Conditions: not given
row,SMILES,Activity
1,Fc1ccc(C2=Nc3ccccc3N=C(N3CCC(c4ccccc4)CC3)C2)cc1,Active
2,Clc1ccc(C2CCN(C3=Nc4ccccc4N=C(c4ccccc4)C3)CC2)cc1,inactive
3,c1ccc(C2=Nc3ccccc3N=C(N3CCC(c4ccccc4)CC3)C2)cc1,inactive
4,Cc1ccc(C2=CCN(C3=Nc4ccccc4N=C(c4ccccc4)C3)CC2)cc1,Active
5,CN1CCN(C2=Nc3ccccc3N=C(c3ccc(F)cc3)C2)CC1,inactive
6,Cc1cc2c(cc1C)N=C(N1CCN(C)CC1)CC(c1ccccc1)=N2,inactive
7,CN1CCN(C2=Nc3cc(Cl)ccc3Nc3ccccc32)CC1 [CLOZAPINE],Active

# System: Rattus norvegicus
# Assay: Antipsychotic activity in 0.2 mA footshock-induced conditioned stimulus rat assessed as decrease in avoidance response at 20 mg/kg, ip after 30 mins
# Format: functional, organism-based
# Parameters: dose 20 mg/kg
# Conditions: not given
row,SMILES,Activity
1,Fc1ccc(C2=Nc3ccccc3N=C(N3CCC(c4ccccc4)CC3)C2)cc1,inactive
2,Clc1ccc(C2CCN(C3=Nc4ccccc4N=C(c4ccccc4)C3)CC2)cc1,inactive
3,c1ccc(C2=Nc3ccccc3N=C(N3CCC(c4ccccc4)CC3)C2)cc1,inactive
4,Cc1ccc(C2=CCN(C3=Nc4ccccc4N=C(c4ccccc4)C3)CC2)cc1,Active
5,CN1CCN(C2=Nc3ccccc3N=C(c3ccc(F)cc3)C2)CC1,Active
6,Cc1cc2c(cc1C)N=C(N1CCN(C)CC1)CC(c1ccccc1)=N2,Active
7,CN1CCN(C2=Nc3cc(Cl)ccc3Nc3ccccc32)CC1 [CLOZAPINE],Active

# System: Mus musculus
# Assay: Antipsychotic activity in mouse assessed as increase in brain dopamine turnover at 25 to 30 mg/kg, ip pretreated with 200 mg/kg, ip alpha-methyl-p-tyrosine tyrosine hydroxylase inhibitor
# Format: functional, organism-based
# Conditions: not given
row,SMILES,Activity
1,Fc1ccc(C2=Nc3ccccc3N=C(N3CCC(c4ccccc4)CC3)C2)cc1,inactive
2,Clc1ccc(C2CCN(C3=Nc4ccccc4N=C(c4ccccc4)C3)CC2)cc1,inactive
3,c1ccc(C2=Nc3ccccc3N=C(N3CCC(c4ccccc4)CC3)C2)cc1,Active
4,Cc1ccc(C2=CCN(C3=Nc4ccccc4N=C(c4ccccc4)C3)CC2)cc1,Active
5,CN1CCN(C2=Nc3ccccc3N=C(c3ccc(F)cc3)C2)CC1,Active
6,Cc1cc2c(cc1C)N=C(N1CCN(C)CC1)CC(c1ccccc1)=N2,Active
7,CN1CCN(C2=Nc3cc(Cl)ccc3Nc3ccccc32)CC1 [CLOZAPINE],Active

# Target: Adenylate cyclase
# Assay: Inhibition of dopamine-sensitive rat brain adenylyl cyclase activity assessed as cAMP level
# Conditions: not given
row,SMILES,IC50
1,c1ccc(C2=Nc3ccccc3N=C(N3CCC(c4ccccc4)CC3)C2)cc1,4.5 ×10⁻⁵ M
2,CN1CCN(C2=Nc3cc(Cl)ccc3Nc3ccccc32)CC1 [CLOZAPINE],1.4 ×10⁻⁷ M

# Target: Adenylate cyclase (Rattus norvegicus) (UniProt D4A3N4+P26770+Q04400+P26769+Q03343+P40146+Q8CFM9+P21932)
# Assay: Inhibition of dopamine-sensitive rat brain adenylyl cyclase activity assessed as cAMP level at 10^-4 M
# Conditions: not given
row,SMILES,inhibition
1,Fc1ccc(C2=Nc3ccccc3N=C(N3CCC(c4ccccc4)CC3)C2)cc1,inactive
2,Cc1ccc(C2=CCN(C3=Nc4ccccc4N=C(c4ccccc4)C3)CC2)cc1,27%
3,CN1CCN(C2=Nc3ccccc3N=C(c3ccc(F)cc3)C2)CC1,46%
4,Cc1cc2c(cc1C)N=C(N1CCN(C)CC1)CC(c1ccccc1)=N2,inactive

# System: Mus musculus
# Assay: Toxicity in mouse assessed as depression at 20 mg/kg, ip
# Format: organism-based
# Parameters: dose 20 mg/kg, route intraperitoneal
# Conditions: in vivo
row,SMILES,Activity
1,Cc1ccc(C2=CCN(C3=Nc4ccccc4N=C(c4ccccc4)C3)CC2)cc1,Toxic
2,CN1CCN(C2=Nc3ccccc3N=C(c3ccc(F)cc3)C2)CC1,Toxic
3,Cc1cc2c(cc1C)N=C(N1CCN(C)CC1)CC(c1ccccc1)=N2,Toxic

# System: Mus musculus
# Assay: Toxicity in mouse assessed as depression at 50 mg/kg, ip
# Format: organism-based
# Parameters: dose 50 mg/kg, route intraperitoneal
# Conditions: in vivo
row,SMILES,Activity
1,CN1CCN(C2=Nc3ccccc3N=C(c3ccc(F)cc3)C2)CC1,Toxic

# System: Mus musculus
# Assay: Toxicity in mouse assessed as depression at 5 mg/kg, ip
# Format: organism-based
# Parameters: dose 5 mg/kg, route intraperitoneal
# Conditions: in vivo
row,SMILES,Activity
1,Fc1ccc(C2=Nc3ccccc3N=C(N3CCC(c4ccccc4)CC3)C2)cc1,Toxic
2,Cc1ccc(C2=CCN(C3=Nc4ccccc4N=C(c4ccccc4)C3)CC2)cc1,Toxic

# System: Mus musculus
# Assay: Toxicity in mouse assessed as ptosis at 50 mg/kg, ip
# Format: organism-based
# Parameters: dose 50 mg/kg, route intraperitoneal
# Conditions: in vivo
row,SMILES,Activity
1,c1ccc(C2=Nc3ccccc3N=C(N3CCC(c4ccccc4)CC3)C2)cc1,Toxic
2,CN1CCN(C2=Nc3ccccc3N=C(c3ccc(F)cc3)C2)CC1,Toxic

# System: Mus musculus
# Assay: Toxicity in mouse assessed as tremors at 50 mg/kg, ip
# Format: organism-based
# Parameters: dose 50 mg/kg, route intraperitoneal
# Conditions: in vivo
row,SMILES,Activity
1,Cc1cc2c(cc1C)N=C(N1CCN(C)CC1)CC(c1ccccc1)=N2,Toxic

# System: Mus musculus
# Assay: Toxicity in mouse assessed as ptosis at 30 mg/kg, ip
# Format: organism-based
# Parameters: dose 30 mg/kg, route intraperitoneal
# Conditions: in vivo
row,SMILES,Activity
1,Clc1ccc(C2CCN(C3=Nc4ccccc4N=C(c4ccccc4)C3)CC2)cc1,Toxic
